Laboratory results as given in patent US10058550B2, “Methods of treating heart failure” (priority 2015, dated 2018).

Molecular target: human APJ receptor (Homo sapiens (Human), UniProt P35414)
Experiment: biochemical
Type: biochemical
Conditions: read-out: Activity hAPJ SPA EC50 IP
Summary of the method: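 Membranes from CHO cells stably expressing cloned human APJ were incubated with WGA SPA beads in 20 mM HEPES pH 7.5, 5 mM MgCl2, 0.1% BSA, 200 mM NaCl and 3 μM GDP. Reaction started with 0.2 nM [35S]GTPγS ± ligands, 90 min at RT. EC50 obtained by non-linear regression as mean of independent experiments.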

Chain of human APJ receptor (P35414 whole entry): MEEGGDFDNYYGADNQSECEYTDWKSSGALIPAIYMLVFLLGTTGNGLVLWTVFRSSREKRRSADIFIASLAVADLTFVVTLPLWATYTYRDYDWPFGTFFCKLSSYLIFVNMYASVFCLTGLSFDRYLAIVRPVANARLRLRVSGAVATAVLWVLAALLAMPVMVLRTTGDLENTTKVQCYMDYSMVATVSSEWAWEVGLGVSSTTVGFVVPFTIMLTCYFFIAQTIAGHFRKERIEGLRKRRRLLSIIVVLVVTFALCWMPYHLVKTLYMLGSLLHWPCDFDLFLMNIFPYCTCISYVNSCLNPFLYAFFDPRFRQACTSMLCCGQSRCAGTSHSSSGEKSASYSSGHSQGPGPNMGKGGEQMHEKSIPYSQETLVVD

Row | Structure (SMILES) | EC50
1 | COc1cccc(OC)c1-n1c(NS(=O)(=O)[C@H](C)[C@H](OC(C)C)c2ccc(Cl)cn2)nnc1-c1cncc(C)c1 (single isomer, unassigned) [Example 744.0, (1R,2R)-1-(5-chloropyridin-2-yl)-N-(4-(2,6-dimethoxyphenyl)-5-(5-methylpyridin-3-yl)-4H-1,2,4-triazol-3-yl)-1-isopropoxypropane-2-sulfonamide or (1S,2S)-1-(5-chloropyridin-2-yl)-N-(4-(2,6-dimethoxyphenyl)-5-(5-methylpyridin-3-yl)-4H-1,2,4-triazol-3-yl)-1-isopropoxypropane-2-sulfonamide] | 26 nM
2 | COc1cccc(OC)c1-n1c(NS(=O)(=O)[C@H](C)[C@H](OC(C)C)c2ccc(Cl)cn2)nnc1-c1cncc(C)c1 (single isomer, unassigned) [Example 745.0, (1R,2R)-1-(5-chloropyridin-2-yl)-N-(4-(2,6-dimethoxyphenyl)-5-(5-methylpyridin-3-yl)-4H-1,2,4-triazol-3-yl)-1-isopropoxypropane-2-sulfonamide or (1S,2S)-1-(5-chloropyridin-2-yl)-N-(4-(2,6-dimethoxyphenyl)-5-(5-methylpyridin-3-yl)-4H-1,2,4-triazol-3-yl)-1-isopropoxypropane-2-sulfonamide] | 0.4 nM
3 | COc1cccc(OC)c1-n1c(NS(=O)(=O)[C@H](C)[C@H](OC(C)C)c2cnc(C)cn2)nnc1-c1cncc(C)c1 (single isomer, unassigned) [Example 746.0, (1R,2R)-N-(4-(2,6-dimethoxyphenyl)-5-(5-methylpyridin-3-yl)-4H-1,2,4-triazol-3-yl)-1-isopropoxy-1-(5-methylpyrazin-2-yl)propane-2-sulfonamide or (1S,2S)-N-(4-(2,6-dimethoxyphenyl)-5-(5-methylpyridin-3-yl)-4H-1,2,4-triazol-3-yl)-1-isopropoxy-1-(5-methylpyrazin-2-yl)propane-2-sulfonamide] | 80 nM
4 | COc1cccc(OC)c1-n1c(NS(=O)(=O)[C@H](C)[C@H](OC(C)C)c2cnc(C)cn2)nnc1-c1cncc(C)c1 (single isomer, unassigned) [Example 747.0, (1R,2R)-N-(4-(2,6-dimethoxyphenyl)-5-(5-methylpyridin-3-yl)-4H-1,2,4-triazol-3-yl)-1-isopropoxy-1-(5-methylpyrazin-2-yl)propane-2-sulfonamide or (1S,2S)-N-(4-(2,6-dimethoxyphenyl)-5-(5-methylpyridin-3-yl)-4H-1,2,4-triazol-3-yl)-1-isopropoxy-1-(5-methylpyrazin-2-yl)propane-2-sulfonamide] | 7.6 nM
5 | COc1ncnc(OC)c1-n1c(NS(=O)(=O)[C@@H]2C[C@@H](OC)CN(c3ncc(F)cn3)C2)nnc1-c1cccnc1 (single isomer, unassigned) [Example 812.0, (3S,5S)—N-(4-(4,6-dimethoxy-5-pyrimidinyl)-5-(3-pyridinyl)-4H-1,2,4-triazol-3-yl)-1-(5-fluoro-2-pyrimidinyl)-5-methoxy-3-piperidinesulfonamide or (3R,5R)—N-(4-(4,6-dimethoxy-5-pyrimidinyl)-5-(3-pyridinyl)-4H-1,2,4-triazol-3-yl)-1-(5-fluoro-2-pyrimidinyl)-5-methoxy-3-piperidinesulfonamide] | 230 nM
6 | Cc1cnc([C@@H](C)[C@H](C)S(=O)(=O)Nc2nnc(-c3cncc(C)c3)n2-c2c(F)cccc2F)nc1 (single isomer, unassigned) [Example 826.0] | 1.7 nM
7 | COc1cccc(-c2nnc(NS(=O)(=O)[C@@H]3CCCN(c4ncc(Cl)cn4)C3)n2-c2c(OC)ncnc2OC)n1 (single isomer, unassigned) [Example 830.0] | 14 nM
8 | COc1ncnc(OC)c1-n1c(NS(=O)(=O)[C@@H]2C[C@H](OC)CN(c3ncc(F)cn3)C2)nnc1-c1cccnc1 (stereo in doubt) [Example 813.0, (3S,5R)-N-(4-(4,6-dimethoxy-5-pyrimidinyl)-5-(3-pyridinyl)-4H-1,2,4-triazol-3-yl)-1-(5-fluoro-2-pyrimidinyl)-5-methoxy-3-piperidinesulfonamide, (3R,5S)-N-(4-(4,6-dimethoxy-5-pyrimidinyl)-5-(3-pyridinyl)-4H-1,2,4-triazol-3-yl)-1-(5-fluoro-2-pyrimidinyl)-5-methoxy-3-piperidinesulfonamide] | 140 nM
9 | COc1ncnc(OC)c1-n1c(NS(=O)(=O)[C@@H]2C[C@H](OC)CN(c3ncc(F)cn3)C2)nnc1-c1cccnc1 (stereo in doubt) [Example 814.0, (3R,5S)-N-(4-(4,6-dimethoxy-5-pyrimidinyl)-5-(3-pyridinyl)-4H-1,2,4-triazol-3-yl)-1-(5-fluoro-2-pyrimidinyl)-5-methoxy-3-piperidinesulfonamide, (3R,5S)-N-(4-(4,6-dimethoxy-5-pyrimidinyl)-5-(3-pyridinyl)-4H-1,2,4-triazol-3-yl)-1-(5-fluoro-2-pyrimidinyl)-5-methoxy-3-piperidinesulfonamide] | 560 nM
10 | COc1ncnc(OC)c1-n1c(NS(=O)(=O)[C@@H]2C[C@@H](OC)CN(c3ncc(F)cn3)C2)nnc1-c1cccnc1 (stereo in doubt) [Example 815.0, (3S,5S)-N-(4-(4,6-dimethoxy-5-pyrimidinyl)-5-(3-pyridinyl)-4H-1,2,4-triazol-3-yl)-1-(5-fluoro-2-pyrimidinyl)-5-methoxy-3-piperidinesulfonamide, (3R,5R)-N-(4-(4,6-dimethoxy-5-pyrimidinyl)-5-(3-pyridinyl)-4H-1,2,4-triazol-3-yl)-1-(5-fluoro-2-pyrimidinyl)-5-methoxy-3-piperidinesulfonamide] | 170 nM
11 | COc1cccc(OC)c1-n1c(NS(=O)(=O)[C@@H]2C[C@@H](OC)CN(c3ncc(F)cn3)C2)nnc1-c1cccnc1 (stereo in doubt) [Example 816.0, (3S,5S)-N-(4-(2,6-dimethoxyphenyl)-5-(3-pyridinyl)-4H-1,2,4-triazol-3-yl)-1-(5-fluoro-2-pyrimidinyl)-5-methoxy-3-piperidinesulfonamide, (3R,5R)-N-(4-(2,6-dimethoxyphenyl)-5-(3-pyridinyl)-4H-1,2,4-triazol-3-yl)-1-(5-fluoro-2-pyrimidinyl)-5-methoxy-3-piperidinesulfonamide] | 18 nM
12 | COc1cccc(OC)c1-n1c(NS(=O)(=O)[C@@H]2C[C@H](OC)CN(c3ncc(F)cn3)C2)nnc1-c1cccnc1 (stereo in doubt) [Example 817.0, (3R,5S)-N-(4-(2,6-dimethoxyphenyl)-5-(3-pyridinyl)-4H-1,2,4-triazol-3-yl)-1-(5-fluoro-2-pyrimidinyl)-5-methoxy-3-piperidinesulfonamide, (3S,5R)-N-(4-(2,6-dimethoxyphenyl)-5-(3-pyridinyl)-4H-1,2,4-triazol-3-yl)-1-(5-fluoro-2-pyrimidinyl)-5-methoxy-3-piperidinesulfonamide] | 16 nM
13 | COc1cccc(OC)c1-n1c(NS(=O)(=O)[C@@H]2C[C@H](OC)CN(c3ncc(F)cn3)C2)nnc1-c1cccnc1 (stereo in doubt) [Example 818.0, (3R,5S)-N-(4-(2,6-dimethoxyphenyl)-5-(3-pyridinyl)-4H-1,2,4-triazol-3-yl)-1-(5-fluoro-2-pyrimidinyl)-5-methoxy-3-piperidinesulfonamide, (3S,5R)-N-(4-(2,6-dimethoxyphenyl)-5-(3-pyridinyl)-4H-1,2,4-triazol-3-yl)-1-(5-fluoro-2-pyrimidinyl)-5-methoxy-3-piperidinesulfonamide] | 110 nM
